Results reported in patent publication US6420569B1, “Process for producing pyrone compounds” (Sumitomo Chemical Company, Limited, priority 2000, dated 2002).

Test system: houseflies (Musca domestica)
Experiment: Knock-down test against housefly
Format: in vivo
Conditions: 0.5% oil solution, 0.7 ml sprayed in 70 cm-cubic glass chamber; ten adult houseflies; 15 minutes after application; two repetitions
Description: (Knock-down Test Against Housefly)
A half part of 4-hydroxy-6-methyl-3-(4-methylpentanoyl)-2-pyrone was dissolved in 10 parts of dichloromethane and mixed with 89.5 parts of Isopar M (isoparaffin produced by Exxon Chemical) for preparing 0.5% oil solution. Part(s) means part(s) by weight.
Ten adult houseflies (Musca domestica) including 5 males and 5 females were released in a 70 cm-cubic glass chamber (volume: […]). By a spray-gun, 0.7 ml of the above oil solution was applied at a pressure of 0.9 kg/cm^2 from a small window on the wall of the chamber. After 15 minutes from application, knocked-down houseflies were observed. As a result of two repetitions, the knocked-down ratio was 95%.

SMILES: Cc1cc(O)c(C(=O)CCC(C)C)c(=O)o1 [4-Hydroxy-6-methyl-3-(4-methylpentanoyl)-2-pyrone]
- knocked-down ratio: 95%
